Test results published in patent publication US20230286995A1, “METABOLICALLY STABLE PYRIMIDINYL DIHYDROQUINOXALINONES AS TUBULIN POLYMERIZATION INHIBITORS” (UNIVERSITY OF TENNESSEE RESEARCH FOUNDATION, priority 2022, published 2023).

Legend:
Test in all cases: Cytotoxicity assay (MTS, 72 h)
[1] = system: Mia PaCa-2; format: cell-based; settings: Homo sapiens, Table 6, read-out: IC50 (nM) Pancreatic cancer Mia PaCa-2
[2] = system: PC3/TxR; format: cell-based; settings: Homo sapiens, Table 6, paclitaxel-resistant, read-out: IC50 (nM) Prostate cancer PC3/TxR
Experimental: Biology. Cell culture and Reagents. […] MIA Paca-2 pancreatic cancer cells were cultured in media also supplemented with 2.5% horse serum. PANC-1 and PC-3 were cultured in RPMI 1640 medium (Gibco, Carlsbad, Calif.) supplemented with 10% FBS and 1% antibiotic/antimycotic mixture. […] For biological experiments, pyrimidine dihydroquinoxalinone derivatives were dissolved in DMSO to create 20 mM stock solutions and stored at −20° C. until use.
(§1) Cytotoxicity Assay. […] Each experiment consisted of four replicates.

[3] = system: PANC-1; format: cell-based; settings: Homo sapiens, Table 6, read-out: IC50 (nM) Pancreatic cancer PANC-1
Experimental: Mia PaCa-2 and PANC-1 cells were seeded in 96-well plates at 4000 and 5000 cells per well, respectively.
as §1

[4] = system: A375; settings: Homo sapiens, A-375, read-out: IC50 (nM) Melanoma Cancer A375, Table 6;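 also: compounds tested from 0.1 nM up to 3 µM in four replicate wells, with absorbance read at 490 nm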
Experimental: (§2) Depending on their growth rate, cancer cells were seeded at a concentration of 3,500-5,000 cells per well in 96-well plate. On next day, the culture medium was replaced with the fresh medium containing the test compounds at concentrations ranging from 0.1 nM to 3 μM in four replicates. […] Absorbance was recorded at 490 nm using a microplate reader (BioTek Instruments Inc., Winooski, Vt.). IC50 values were calculated by GraphPad Prism software (San Diego, Calif.).
(§3) Cancer cells were seeded at a concentration of 3,500-5,000 cells per well in a 96-well plate. […] Each experiment consisted of four replicates. […] A microplate reader was used to record the absorbance at 490 nm (BioTek Instruments Inc., Winooski, Vt.). IC50 values were calculated by GraphPad Prism software (San Diego, Calif.).

[5] = system: M14; settings: Homo sapiens, M14, read-out: IC50 (nM) Melanoma Cancer M14
Experimental: as §2, §3

[6] = system: MDA-MB-231; format: cell-based; settings: Homo sapiens, MDA-MB-231, read-out: IC50 (nM) Breast Cancer MDA-MB-231; Table 6
[7] = system: MDA-MB-453; format: cell-based, human; settings: Homo sapiens, MDA-MB-453; Table 6; read-out: IC50 (nM) Breast Cancer MDA-MB-453
[8] = system: PC3; format: cell-based; settings: Homo sapiens, PC-3; Table 6; read-out: IC50 (nM) Prostate cancer PC3
From the text: as §1

Row | SMILES | IC50 [1] [nM] | IC50 [2] [nM] | IC50 [3] [nM] | IC50 [4] [nM] | IC50 [5] [nM] | IC50 [6] [nM] | IC50 [7] [nM] | IC50 [8] [nM]
1 | COc1ccc2c(c1)NC(=O)CN2c1nc(N=C=S)nc2c1CCC2 [Compound 12l, 4-(2-isothiocyanato-6,7-dihydro-5H-cyclopenta[d]pyrimidin-4-yl)-7-methoxy-3,4-dihydroquinoxalin-2(1H)-one] | 7.3 ± 1.2 | 4.8 ± 0.7 | 10.7 ± 2.3 | ~3.3 | 2.6 ± 0.4 | 4.9 ± 0.8 | 2.9 ± 0.6 | 6.3 ± 0.8
2 | COc1ccc2c(c1)NC(=O)CN2c1nc(NCCO)nc2c1CCC2 [Compound 12m, 4-(2-((2-hydroxyethyl)amino)-6,7-dihydro-5H-cyclopenta[d]pyrimidin-4-yl)-7-methoxy-3,4-dihydroquinoxalin-2(1H)-one] | 23.6 ± 3.5 | 15 ± 1.6 | 43.1 ± 8.2 | ~8.6 | 7 ± 1 | 8.6 ± 1.2 | 6.4 ± 1.6 | 14.8 ± 1.8
3 | COc1ccc2c(c1)NC(=O)CN2c1nc(N2CCOCC2)nc2c1CCC2 [Compound 12e, 7-methoxy-4-(2-morpholino-6,7-dihydro-5H-cyclopenta[d]pyrimidin-4-yl)-3,4-dihydroquinoxalin-2(1H)-one] | 44.4 ± 7.1 | 14.4 ± 2.2 | 56.2 ± 9 | ~13.6 | 18.3 ± 3.7 | 25.8 ± 4.6 | 17.6 ± 4 | 23.9 ± 3.6
4 | COc1ccc2c(c1)NC(=O)CN2c1nc(SC)nc2c1CCC2 [Compound 10, 7-methoxy-4-(2-(methylthio)-6,7-dihydro-5H-cyclopenta[d]pyrimidin-4-yl)-3,4-dihydroquinoxalin-2(1H)-one] | 3.9 ± 0.6 | 1.6 ± 0.2 | 3.4 ± 0.6 | 3.4 ± 0.5 | 3.2 ± 0.5 | 4.3 ± 0.7 | 1.4 ± 0.6 | 2.4 ± 0.4
5 | COc1ccc2c(c1)NC(=O)CN2c1nc(OC)nc2c1CCC2 [Compound 12b, 7-methoxy-4-(2-methoxy-6,7-dihydro-5H-cyclopenta[d]pyrimidin-4-yl)-3,4-dihydroquinoxalin-2(1H)-one] | 9 ± 1.3 | 4.7 ± 0.7 | 9.4 ± 1.5 | ~3.2 | 5.3 ± 1.1 | 7.5 ± 1.5 | 3.4 ± 0.8 | 7.2 ± 1.2
6 | COc1ccc2c(c1)NC(=O)CN2c1nc(-n2ccnc2)nc2c1CCC2 [Compound 12h, 4-(2-(1H-imidazol-1-yl)-6,7-dihydro-5H-cyclopenta[d]pyrimidin-4-yl)-7-methoxy-3,4-dihydroquinoxalin-2(1H)-one] | 15.5 ± 2.5 | 4.7 ± 0.7 | 11.5 ± 2.3 | ~5.7 | 5.8 ± 1.2 | 8.4 ± 1.5 | 4.5 ± 1.2 | 8.2 ± 1.4
7 | COc1ccc2c(c1)NC(=O)CN2c1nc(N)nc2c1CCC2 [Compound 12c, 4-(2-amino-6,7-dihydro-5H-cyclopenta[d]pyrimidin-4-yl)-7-methoxy-3,4-dihydroquinoxalin-2(1H)-one] | 5 ± 0.7 | 2.3 ± 0.3 | 5.5 ± 1 | ~2.01 | 1.7 ± 0.3 | 2.3 ± 0.5 | 1.4 ± 0.4 | 3.8 ± 0.6
